According to ChEMBL document CHEMBL3763080, “Design and synthesis of a C7-aryl piperlongumine derivative with potent antimicrotubule and mutant p53-reactivating properties” (Eur J Med Chem, 2016):
Activity calls are given as the source filed them. No cut-off for these calls is given here.

Legend:
SK-BR-3 = assay: Induction of microtubule destabilization in human SKBR3 cells assessed as soluble fraction of protein at 2.5 uM after 24 hrs by Western blot analysis; type: cell-based
[1] = system: Cellular tumor antigen p53 (Homo sapiens), P04637 [R175H]; assay: Reactivation of human p53 R175H mutant in SKBR3 cells assessed as increase in p53 DNA binding at 5 uM by biotinylated double stranded DNA probe-based electrophoretic-mobility shift assay; type: cell-based; settings: SK-BR-3
Tubulin (Bos taurus) = Tubulin (Bos taurus) (UniProt Q6B856+Q862L2+Q862F3); assay: Inhibition of bovine brain tubulin polymerization measured every 1 min for 30 mins by fluorescence assay
[2] = system: Cellular tumor antigen p53 (Homo sapiens), P04637 [R175H]; assay: Reactivation of p53 R175H mutant in human SKBR3 cells at 5 uM after 12 hrs by flow cytometric analysis; type: cell-based; settings: SK-BR-3
[3] = system: Cellular tumor antigen p53 (Homo sapiens), P04637 [R175H]; assay: Reactivation of p53 R175H mutant in human SKBR3 cells assessed as accumulation of wild type p53 at 5 uM after 12 hrs by DAPI staining based confocal/multiphoton microscopic analysis; type: cell-based; settings: SK-BR-3
[4] = system: Cellular tumor antigen p53 (Homo sapiens), P04637 [R175H]; assay: Reactivation of human p53 R175H mutant in human SKBR3 cells assessed as increase in wild type p53 expression after 12 hrs by immunoprecipitation/Western blot analysis; type: cell-based; settings: SK-BR-3
[5] = system: Cellular tumor antigen p53 (Homo sapiens), P04637 [R175H]; assay: Reactivation of human p53 R175H mutant in human SKBR3 cells assessed as decrease in mutant p53 expression after 12 hrs by immunoprecipitation/Western blot analysis; type: cell-based; parameters: scale not given: the % may be the effect or the level left; settings: SK-BR-3
[6] = system: Cellular tumor antigen p53 (Homo sapiens), P04637 [R175H]; assay: Reactivation of human p53 R175H mutant in SKBR3 cells assessed as increase in p53 DNA binding at 5 uM by non biotinylated double stranded DNA probe-based electrophoretic-mobility shift assay; type: cell-based; settings: SK-BR-3
[7] = system: Cellular tumor antigen p53 (Homo sapiens), P04637 [R175H]; assay: Reactivation of human p53 R175H mutant in human SKBR3 cells assessed as upregulation of MDM2 expression after 24 hrs by Western blot analysis; type: cell-based; settings: SK-BR-3
[8] = system: Cellular tumor antigen p53 (Homo sapiens), P04637 [R175H]; assay: Reactivation of human p53 R175H mutant in human SKBR3 cells assessed as upregulation of p21cip1 expression after 24 hrs by Western blot analysis; type: cell-based; settings: SK-BR-3
[9] = system: Cellular tumor antigen p53 (Homo sapiens), P04637 [R175H]; assay: Reactivation of human p53 R175H mutant in human SKBR3 cells assessed as upregulation of PUMA expression after 24 hrs by Western blot analysis; type: cell-based; settings: SK-BR-3
[10] = system: Cellular tumor antigen p53 (Homo sapiens), P04637 [R175H]; assay: Reactivation of human p53 R175H mutant in human SKBR3 cells assessed as cell cycle arrest at G2/M phase at 2.5 uM after 24 hrs by propidium iodide staining based flow cytometric analysis; settings: SK-BR-3
[11] = system: Cellular tumor antigen p53 (Homo sapiens), P04637 [R175H]; assay: Reactivation of human p53 R175H mutant in human SKBR3 cells assessed as upregulation of Aurora kinase A expression at 2.5 uM after 24 hrs by Western blot analysis; type: cell-based; settings: SK-BR-3
[12] = system: Cellular tumor antigen p53 (Homo sapiens), P04637 [R175H]; assay: Reactivation of human p53 R175H mutant in human SKBR3 cells assessed as downregulation of CDC25C expression at 2.5 uM after 24 hrs by Western blot analysis; type: cell-based; settings: SK-BR-3
[13] = system: Cellular tumor antigen p53 (Homo sapiens), P04637 [R175H]; assay: Reactivation of human p53 R175H mutant in human SKBR3 cells assessed as upregulation of cyclin B1 expression at 2.5 uM after 24 hrs by Western blot analysis; type: cell-based; settings: SK-BR-3
[14] = Cytotoxicity against human SKBR3 cells assessed as cell viability after 72 hrs by resazurin reduction assay; type: functional, cell-based; settings: SK-BR-3, 72 h
MCF7 = assay: Cytotoxicity against human MCF7 cells assessed as cell viability after 72 hrs by resazurin reduction assay; type: functional, cell-based; settings: MCF7, 72 h
A549 = assay: Cytotoxicity against human A549 cells assessed as cell viability after 72 hrs by resazurin reduction assay; type: functional, cell-based; settings: A549, 72 h
T98G = assay: Cytotoxicity against human T98G cells assessed as cell viability after 72 hrs by resazurin reduction assay; type: functional, cell-based
[15] = Cytotoxicity against human HT1080 cells assessed as cell viability after 72 hrs by resazurin reduction assay; type: functional, cell-based; settings: HT-1080, 72 h
HT-29 = assay: Cytotoxicity against human HT-29 cells assessed as cell viability after 72 hrs by resazurin reduction assay; type: functional, cell-based; settings: HT-29, 72 h
[16] = Cytotoxicity against human GBM10 cells assessed as cell viability after 72 hrs by resazurin reduction assay; type: functional, cell-based; settings: GBM10, 72 h
[17] = Cytotoxicity against human SF188 cells assessed as cell viability after 72 hrs by resazurin reduction assay; type: functional, cell-based; settings: SF-188, 72 h

| SMILES | inhibition (Tubulin (Bos taurus)) | IC50 [14] [nM] | IC50 (MCF7) [nM] | IC50 (A549) [nM] | IC50 (T98G) [nM] | IC50 [15] [nM] | IC50 (HT-29) [nM] | IC50 [16] [nM] | IC50 [17] [nM] | other results |
| --- | --- | --- | --- | --- | --- | --- | --- | --- | --- | --- |
| COC(=O)Nc1nc2cc(C(=O)c3cccs3)ccc2[nH]1 |  |  |  |  |  |  |  |  |  | Activity (SK-BR-3): Active |
| COc1ccc(/C(=C\c2cc(OC)c(OC)c(OC)c2)C(=O)N2CCC=CC2=O)cc1 | Dose-dependent effect |  |  |  |  |  |  |  |  | Activity [1]: Active; Activity [2]: Active; Activity [3]: Active; Activity [4]: 80%; Activity [5]: 90%; Activity [6]: inactive; Activity [7]: Dose-dependent effect; Activity [8]: Dose-dependent effect; Activity [9]: Dose-dependent effect; Activity [10]: > 60%; Activity [11]: Active; Activity [12]: Active; Activity [13]: Active |
| COc1ccc(/C=C\c2cc(OC)c(OC)c(OC)c2)cc1O [COMBRETASTATIN A4] | Dose-dependent effect | 8 | 42 | 3 | 11 | 70 | 420 | 52 | 21 |  |
| COc1cc(/C=C/C(=O)N2CCC=CC2=O)cc(OC)c1OC [PIPLARTINE] |  | 4040 | 6140 | 6540 | 4920 | 3430 | 5490 | 3810 | 3900 |  |
